Values quoted from earlier work in patent US20070269478A1, “METHOD OF PREPARING ACELLULARIZED, BIOCOMPATIBLE, IMPLANTABLE MATERIAL” (priority 2006, published 2007).

Experiments:
[1] = for pK5: primary amine basicity, glycine vs. metilamine; for pK2: amino group, glutamic acid vs. γ-aminobutyric
[2] = α-amino acids with acidic side chains

| pH above which there is an excess of negative charge [2] | pK2 [1] | SMILES | pK5 [1] |
| --- | --- | --- | --- |
| – | – | NCC(=O)O [glycine] | 9.60 |
| ~2.2 | – | N[C@@H](CCS(=O)(=O)O)C(=O)O [homocysteic acid] | – |
| – | – | CN [metilamine] | 10.65 |
| – | 10.56 | NCCCC(=O)O [γ-aminobutyric, 4-aminobutanoic acid] | – |
| ~4.2 | 9.76 | N[C@@H](CCC(=O)O)C(=O)O [glutamic acid] | – |
